Measured values published in patent US20050196806A1, “Prostate specific antigen oligoepitope peptide” (The Government of the USA, as represented by the Secretary, …, priority 1996, published 2005).
≈ marks a conversion by molar mass, not a printed value. Marks after values point to notes of the source that are not given here. Residues, ends and D or L forms follow the SMILES beside them.

Assays:
CIR-A2 cells = assay: Effects of protease inhibitors on CTL mediated killing of CIRA2 cells pulsed with PSA-OP; type: cell-based, human; details: Donor-1 PSA-OP CTL, 25:1 E:T ratio; for % of Specific Release (+/−SD), CIRA2 cells, No peptide: Medium 7.7 (1.9)
Method: Various target cells were labeled with 50 μCi of ^111In-oxyquinoline (Medi-Physics Inc., Arlington, Ill.) for 15 minutes at room temperature. Target cells (0.2×10^4) in 100 μl of complete medium (see below) were added to each of 96 wells in flat bottom assay plates (Corning Costar Corp.). The labeled targets were incubated with peptides at a final concentration of 50 μg/ml for 60 min at 37° C. in 5% CO2 before adding effector cells. Effector cells were suspended in 100 μl of complete medium supplemented with 5% pooled human AB serum and added to target cells. The plates were incubated at 37° C. for 16 hours. Supernatants were harvested for γ-counting using harvester frames (Skatron, Inc. Sterling, Va.). Determinations were carried out in triplicate and standard deviations were calculated. All experiments were carried out three times. Specific Lysis was calculated using the following formula: % of Specific Release=observed release(cpm)−spontaneous release(cpm) total releae(cpm)−spontaneous release(cpm)×100
[…] Peptide pulsed target cells were incubated with protease inhibitors. Protease inhibitors used were E64, carboxypeptidase inhibitor, plummer inhibitor, and captopril (angiotension converting enzyme inhibitor) at various concentrations (10^−5, 10^−6, 10^−7 M). CTL activity was determined by the CTL assay described above.

[1] = Solubility of synthesized peptide; type: physicochemical; details: in 1% DMSO
Method: PSA-OP was synthesized on an Applied Biosystems Model 432A peptide synthesizer. It operates on a 25 μmole scale and employs f-moc chemistry and feedback monitoring to control the coupling of each successive amino acid to the growing chain. The completed peptide is cleaved off the synthesis resin with -trifluoroacetic acid and thioanisole/ethanedithiol as scavengers. Acid salts are extracted with tert-butyl methyl ether and the peptide is lyophilized from water to give approximately 64 mg powder. The powder is soluble at 2 mg/ml in 1% DMSO and sterile-filtered aliquots show a single sharp peak on C18 reverse phase high performance liquid chromatography.

human HLA A2 molecules = molecular target: T1, human HLA A2 molecules (Homo sapiens, UniProt P04439, D140Y/D185E/D98H/E176V/E277Q/G131W/G231S/I119V/I121R/I166T/I218V/L300P/L318F/N151K/N90K/P208A/P217A/Q86G/Q94H/R138H/R169H/T345S); assay: T2 cell binding assay (PSA peptide binding assay, Example II); details: peptides at 50 μg/ml, None = 127.25
T1 construct: endogenous in cells; host or cells: T2 cells (174CEM.T2)
Description: The amino acid sequence of human PSA was scanned using a predictive algorithm that combines a search for anchor residues with numerical assignments to all residues at all positions. The T2 cell binding assay was then used to determine which peptides bound human HLA A2 molecules. […] Table 7 gives the amino acid sequence of these peptides and compares them to corresponding sequences of HGK and PKA.

[2] = molecular target: T2, HLA class-I A2001 molecule (Homo sapiens, UniProt P04439, D140Y/D185E/D98H/E176V/E277Q/G131W/G231S/I119V/I121R/I166T/I218V/L300P/L318F/N151K/N90K/P208A/P217A/Q86G/Q94H/R138H/R169H/T345S); assay: Peptide binding to HLA-A2: upregulation on T2 cells by flow cytometry (Example IV); details: T2 cells incubated 24 h with peptide 50 μg/ml/10^6 cells; 100 cut off value for positivity; None = 16.88
T2 construct: endogenous in cells; host or cells: T2 cells (174CEM.T2, transport deletion mutant)
Method: 1×10^6 cells in serum-free IMDM were incubated with peptides at the concentration of 50 μg/ml in 24-well culture plates at 37° C. in 5% CO2. Flow cytometry for peptide binding was performed using T2 cells and single color analysis. After cells were washed three times in DPBS as above, they were incubated for 1 hr with HLA-A2 specific MAb A2,69 (One lambda, Inc., Canoga Park, Calif.), using 10 μl of a 1× working dilution per 10^6 cells. MOPC-21 (Cappel/Organon Teknika Corp.) was used as isotype control. The cells were then washed three times and incubated with 1:100 dilution of fluorescein (FITC) labeled anti-mouse IgG (Kirkegaard & Perry, Gaithersburg, Md.). Analysis was carried out using the FACScan as described above. Cells were maintained on ice during all cell preparation and staining unless otherwise stated.

NK target K562 = assay: Cytotoxic assay of PSA peptide specific T cells against K562; type: cell-based, human; details: 24 hour assay, E:T ratio 25:1
Description: (§1) Four of the T cell lines derived from three different individuals were then assays for their ability to lyse human cells (Table 9). […] No lysis was seen using the PSA negative human colon cancer cell line COLO-205. While 80% lysis was seen using the LNCAP PSA expressing human prostate cancer cell line. When employing the NK target K562, which measures non-specific lysis due to NK cell activity, only 23% lysis was obtained. Similar results were seen employing a different T cell line obtained from the same patient which was derived from pulsing with PSA peptide 154-163. Two additional T cell lines which were derived from peptide 154-163 were also analyzed. One was from a normal donor (T-1538) and one was from a prostate cancer patient (T-PC2; T Donor C).

[3] = tested on: PBLs isolated from male HLA-A2001+ donors; assay: Limiting dilution analysis of CTL precursor frequency; type: cell-based, human; details: for Number of precursors (precursor frequency): calculated by X^2 minimization; for % of negative microcolonies, 10,000: two cycles of stimulation with the peptide, targets CIRA2 pulsed 3 h, cold K562
Method: Limiting dilution assays were used for the determination of precursor frequencies to PSA-1, PSA-3 and PSA-OP. Various number of PBMCs were seeded in 96-well flat bottom plates (Coming Costar) with 1×10^4 autologous PBMC irradiated with 4,000 rads and incubated with 50 μg/ml of PSA peptide. Cells were cultured in complete medium as described previously. At least 48 cultures were set up for each dilution. Cultures were incubated for 5 days at 37° C. in a humidified atmosphere containing 5% CO2 and then provided with fresh medium containing human IL-2 for 11 days, with IL-2-containing medium being replenished every 72 hr as shown below for CTLs generation. After two cycles of stimulation specific cytotoxic activity was tested for each single well, against CIR-A2 target cells with or without incubation with peptide. Cytotoxic assays were similar to the method described above. The unlabelled K562 cells were added to the microwells containing responder cells. After 1 hr incubation at 37° C. target cells were added into each well and incubated for 6 hrs at 37° C. Precursor frequencies were calculated by X^2 minimization.

T2 cells = assay: Cytotoxic assay of PSA peptide specific T cells against T2 cells; type: cell-based, human; details: 24 hour assay, E:T ratio 25:1
[4] = tested on: PSA negative human colon cancer cell line COLO-205; assay: Cytotoxic assay of PSA peptide specific T cells against COLO-205; type: cell-based; details: 24 hour assay, E:T ratio 25:1
Description: as §1

[5] = tested on: LNCAP PSA expressing human prostate cancer cell line; assay: Cytotoxic assay of PSA peptide specific T cells against LNCAP (Example III); type: cell-based; details: 24 hour assay, E:T ratio 25:1
Description: as §1

[6] = tested on: PBMC from normal healthy donors expressing the HLA A2 class 1 allele; assay: Establishment of human T cell lines by pulsing PBMC with peptide and IL-2; type: cell-based; details: donors with T cell line / donors tested; PBMC pulsed with peptide and IL-2
Description: Cytotoxic T-cells specific for PSA can be established from peripheral blood mononuclear cells (PBMC) obtained from a host immunized as discussed above. For example, PBMC can be separated by using Lymphocyte Separation Medium gradient (Organon Teknika, Durham, N.C., USA) as previously described [Boyum et al, Scand J. Clin Lab Invest 21:77-80 (1968)]. Washed PBMC are resuspended in a complete medium, for example, RPMI 1640 (GIBCO) supplemented with 10% pool human AB serum (Pel-Freeze Clinical System, Brown Dear, Wisc., USA), 2 mM glutamine, 100 U/ml penicillin and 100 μg/ml of streptomycin (GIBCO). PBMC at a concentration of about 2×10^5 cells in complete medium in a volume of, for example 100 μl are added into each well of a 96-well flat-bottom assay plate (Costar, Cambridge, Mass., USA). The antigen or peptides are added into the cultures in a final concentration of about 50 μg/ml and incubated at 37° C. in a humidified atmosphere containing 5% CO2 for 5 days. After removal of peptide containing media, the cultures are provided with fresh human IL-2 (10 U/ml) after 5 days and replenished with IL-2 containing medium every 3 days. Primary cultures are restimulated with the same peptide (50 μg/ml) on day 16. 5×10^5 irradiated (4,000 rad) autologous PBMC are added in a volume of about 50 μl complete medium as antigen-presenting cells (APC). […]

[7] = T-Donor C T-cell line (prostate cancer patient)

C[C@H](CS)C(=O)N1CCC[C@H]1C(=O)O [Captopril, captopril]
% of Specific Release (+/−SD), CIRA2 cells pulsed with PSA-OP peptide [50 μg/ml] (CIR-A2 cells; inhibitor 10^−6 M): 11.0 (2.6) % | % of Specific Release (+/−SD), CIRA2 cells, No peptide (CIR-A2 cells; inhibitor 10^−6 M): 15.8 (2.1) %

CC(C)C[C@H](NC(=O)[C@H]1O[C@@H]1C(=O)O)C(=O)NCCCCN=C(N)N [E 64]
% of Specific Release (+/−SD), CIRA2 cells pulsed with PSA-OP peptide [50 μg/ml] (CIR-A2 cells; inhibitor 10^−6 M): 13.7 (0.6) % | % of Specific Release (+/−SD), CIRA2 cells, No peptide (CIR-A2 cells; inhibitor 10^−6 M): 11.9 (1.7) %

CC[C@H](C)[C@H](NC(=O)[C@@H](NC(=O)[C@H](Cc1c[nH]cn1)NC(=O)[C@H](CC(C)C)NC(=O)[C@H](CC(=O)O)NC(=O)[C@@H](NC(=O)[C@H](CS)NC(=O)[C@H](CCC(N)=O)NC(=O)[C@H](CC(C)C)NC(=O)[C@H](CCCCN)NC(=O)[C@H](CCCCN)NC(=O)[C@@H]1CCCN1C(=O)[C@@H](NC(=O)[C@H](CC(C)C)NC(=O)[C@@H](N)Cc1ccccc1)[C@@H](C)O)C(C)C)C(C)C)C(=O)N[C@@H](CO)C(=O)N[C@@H](CC(N)=O)C(=O)N[C@@H](CC(=O)O)C(=O)N[C@H](C(=O)N[C@@H](CS)C(=O)N[C@@H](C)C(=O)N[C@@H](CCC(N)=O)C(=O)N[C@H](C(=O)N[C@@H](Cc1c[nH]cn1)C(=O)N1CCC[C@H]1C(=O)N[C@@H](CCC(N)=O)C(=O)N[C@@H](CCCCN)C(=O)N[C@H](C(=O)N[C@H](C(=O)N[C@@H](CCCCN)C(=O)O)[C@@H](C)O)C(C)C)C(C)C)C(C)C [PSA-OP] (H-FLTPKKLQCVDLHVISNDVCAQVHPQKVTK-OH; N-terminus and C-terminus assumed)
solubility [1]: 2000 µg/mL (≈ 590 µM)

NC(N)=NCCSCC(CS)C(=O)O (centres unmarked) [Plummer's]
% of Specific Release (+/−SD), CIRA2 cells, No peptide (CIR-A2 cells; inhibitor 10^−5 M): 10.7 (2.0) %

KLQCVDLHV [PSA 146-154, ID No. 9]
MAb A2, 69: Mean channel fluorescent intensity (human HLA A2 molecules): 223.97 | MAb A2, 69: Mean channel fluorescent intensity (human HLA A2 molecules; listed as 146-154): positive

PSA [42-51]: negative control peptide, unable to bind HLA class I-A2 [reference compound]
T2 binding: relative fluorescence (mean intensity) with anti-HLA-A2 mAb [2]: 51.44

VISNDVCAQV [PSA-3, ID No. 2]
% specific release (lysis), K562 (NK target K562; T-Donor A T-cell line): 22% | % specific release (lysis), K562 (NK target K562; T-Donor B T-cell line): 3% | % specific release (lysis), K562 (NK target K562; [7]): 2% | % of negative microcolonies, 500 ([3]; T/PSA-OP 2 donor): 100.0% | % of negative microcolonies, 1,000 ([3]; T/PSA-OP 2 donor): 100.0% | % of negative microcolonies, 5,000 ([3]; T/PSA-OP 2 donor): 97.8% | Number of precursors (precursor frequency) ([3]; T/PSA-OP 2 donor): 1/244200 | % of negative microcolonies, 10,000 ([3]; T/PSA-OP 2 donor): 95.8% | % of negative microcolonies, 500 ([3]; T/PSA-OP 3 donor): 97.6% | % of negative microcolonies, 1,000 ([3]; T/PSA-OP 3 donor): 95.8% | % of negative microcolonies, 5,000 ([3]; T/PSA-OP 3 donor): 93.7% | Number of precursors (precursor frequency) ([3]; T/PSA-OP 3 donor): 1/59279 | % of negative microcolonies, 10,000 ([3]; T/PSA-OP 3 donor): 89.6% | MAb A2, 69: Mean channel fluorescent intensity (human HLA A2 molecules; listed as 154-163): positive | MAb A2, 69: Mean channel fluorescent intensity (human HLA A2 molecules; listed as PSA 154-163): 182.30 | % specific release (lysis), T2 (T2 cells; T-Donor A T-cell line derived with the peptide, 111In release): 16% | % specific release (lysis), T2 + peptide (T2 cells; T-Donor A T-cell line): 35^b % | % specific release (lysis), T2 (T2 cells; T-Donor B T-cell line): 10% | % specific release (lysis), T2 + peptide (T2 cells; T-Donor B T-cell line): 40^b % | % specific release (lysis), T2 (T2 cells; [7]): 15% | % specific release (lysis), T2 + peptide (T2 cells; [7]): 35^b % | % specific release (lysis), COLO-205 ([4]; T-Donor A T-cell line): 10% | % specific release (lysis), COLO-205 ([4]; T-Donor B T-cell line): 10% | % specific release (lysis), COLO-205 [4, 7]: 8% | % specific release (lysis), LNCAP ([5]; T-Donor A T-cell line): 60^b % | % specific release (lysis), LNCAP ([5]; T-Donor B T-cell line): 29^b % | % specific release (lysis), LNCAP [5, 7]: 35^b % | T2 binding: relative fluorescence (mean intensity) with anti-HLA-A2 mAb [2]: 123.71 | T cell lines established from normal donors [6]: 6/6
